Assay: gradient 5% acetonitrile 3 min, to 50% in 2 min, to 85% in 15 min, held 3 min, 100 µL/min
Details: column: Zorbax Extend-C18 2.1 x 50 mm; eluents: water / acetonitrile, 0.1% formic acid
How it was run: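 A Zorbax Extend-C18 column (2.1 × 50 mm, 1.8 μm) run at 100 μL/min with water and acetonitrile, both containing 0.1% formic acid, separated mixtures of ~100 pure standards. The HPLC was coupled to a quadrupole time-of-flight mass spectrometer operated in positive and negative ionization mode, with dead and dwell volumes of 40 μL and 900 μL. Each retention time was taken from a computationally picked adduct peak that was then manually inspected.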

Structure (SMILES)	RP-LC retention time
Cc1ccccc1NS(=O)(=O)c1cc(-c2[nH]ncc2C(=O)N2CCCCC2)oc1C	755 s
COc1cccc(CNC(=O)CCc2nc3c(C)cccc3c(=O)n2C)c1	801 s
COc1ccc(NC(=O)c2cc3c(=O)oc4ccccc4c3n2C)cc1Cl	1020 s
COc1ccc(C(=O)Nc2c(-c3ccccc3)nc3ccccn23)cc1OC	608 s
CCc1ccc(C(C)NC(=O)c2cccc(C3CCCN(C(=O)NC(C)C)C3)c2)cc1 (configuration not stated)	1010 s
COCCNC(=O)C1CCC(=O)N(c2ccc(OC)cc2)C1c1ccc(F)cc1 (configuration not stated)	658 s
Cn1cnc2c(C(=O)Nc3ccc(F)c(Cl)c3)nn(-c3ccccc3)c2c1=O	976 s
CC1CCCN(C(=O)Cc2nnc3cc(-c4nc(C5CC5)no4)ccn23)C1 (configuration not stated)	759 s
Cc1ccc(NC(=O)CCNc2cnc3cnccn23)cc1F	578 s
COc1ccc(CCC(=O)N2CCN(S(=O)(=O)c3cc4c5c(c3)CCC(=O)N5CCC4)CC2)cc1	768 s
COc1ccc(-n2ncc3c(=O)n(Cc4nc(-c5ccc(F)cc5)no4)cnc32)cc1	1030 s
O=C(NCc1cccc(Cl)c1)C1CCN(c2cncnc2N2CCOCC2)CC1	647 s
COc1ccc2cc3c(=O)n(Cc4ccccc4)nc-3oc2c1	833 s
O=C(NCc1cc(F)ccc1F)C1CCN(c2nnc(-c3ccccc3)o2)CC1	819 s
Cc1cc(NC(=O)C2CCCN(c3ccc(-n4cccn4)nn3)C2)no1 (configuration not stated)	654 s
Cn1cnc(S(=O)(=O)N2CC(Oc3ccccc3-c3nc(-c4ccccc4)no3)C2)c1	915 s
O=C(Nc1nc2c(s1)COCC2)c1cccs1	664 s
CCn1cc(-c2nc(C(=O)NCc3ccc(OC)cc3)cs2)c2cccnc21	958 s
CCOC(=O)Cc1csc(NC(=O)CN2CC(c3nc(C4CC4)no3)C2)n1	575 s
COc1cc(OC)c(NC(=O)Cn2ccc3ccc(-c4nnc(C)o4)cc32)cc1Cl	859 s
Cc1cccc(NC(=O)Nc2nc(C(=O)NCc3cccs3)cs2)c1	794 s
O=C(c1ccco1)N1CCC(OCc2nc(C3CC3)no2)CC1	732 s
CO[C@H]1C(=O)N(C(C)C)[C@H]1C1CCN(C(=O)CN2C(=O)CCC2=O)CC1	607 s

Structure (SMILES)	RP-LC retention time
CC(C)NC(=O)Cn1cnc2ccccc2c1=O	609 s
CC(C)c1ccc(N2C(=O)CC(N3CCC(C(N)=O)CC3)C2=O)cc1 (configuration not stated)	638 s
Cc1noc(C)c1CC(=O)N(C)C1CCc2nn(CC3CC3)c(=O)n2CC1 (configuration not stated)	630 s
CC1CCN(S(=O)(=O)c2ccc(-c3nnc(C(=O)NCc4cccs4)o3)cc2)CC1	910 s
NC(=O)COC1CCC12CCN(C(=O)C1CCCCC1)CC2 (configuration not stated)	715 s
Cc1ccccc1NC(=O)C1CCN(S(=O)(=O)c2ccc3c(c2)NC(=O)C(C)O3)CC1 (configuration not stated)	815 s
Cc1cc(CN2CCC(CNC(=O)C(=O)NCc3ccc4c(c3)OCO4)CC2)c(C)o1	583 s
O=C(Cc1ccc(F)cc1)NCCCn1cccc1	746 s
Cc1oc(-c2[nH]ncc2C(=O)N2CCCC2)cc1S(=O)(=O)Nc1cccc(Cl)c1	741 s
CCCN(C)C(=O)CCC1CCN(c2cc(NC3CC3)ncn2)CC1	648 s
CCCNC(=O)C1CCCN(c2ccc(SCC(=O)NCc3ccc(F)cc3)nn2)C1 (configuration not stated)	652 s
CCCn1nccc1-c1csc(S(=O)(=O)N2CCC3(CC2)OCCO3)c1	906 s
N#Cc1ccc(S(=O)(=O)NC2CCc3nn(CC4CC4)c(=O)n3CC2)cc1 (configuration not stated)	616 s
O=C(NCc1cccnc1)C1CCc2sc(C(=O)N3CCOCC3)cc2C1 (configuration not stated)	526 s
O=c1c2nc(-c3ccc4c(c3)OCO4)cn2ccn1-c1cccc(Cl)c1	834 s
Cc1ccc(-c2ccnc3c(C(=O)NC(C)c4ccncc4)cnn23)cc1C (configuration not stated)	668 s
COCCCNc1c(-c2cccc(F)c2)nc2sc(C(=O)N3CCCC3)c(C)n12	824 s
c1cc2c(cc1-c1noc(C3CCCCC3)n1)nnn2CCN1CCOCC1	711 s
COc1cc(OC)cc(-c2noc(-c3nn(-c4ccc(C)cc4)ccc3=O)n2)c1	916 s
CC1=NS(=O)(=O)N(C)C=C1C(=O)OCc1noc(-c2ccccc2Cl)n1	975 s
COc1ccc(Cl)cc1C(=O)Nc1cnc(N2CCCC2)nc1	818 s
CCCn1c(CCNC(=O)c2ccc(F)c(F)c2)nc2cccnc21	683 s
COCCC(=O)Nc1cnn(-c2ncc(N3CCCC3)cn2)c1	642 s

Structure (SMILES)	RP-LC retention time
CCN1c2ccccc2C(=O)NC12CCN(C(=O)c1cc(OC)c(OC)c(OC)c1)CC2	714 s
CCOc1ccc(OCC)c(NC(=O)C2CCCN(C(=O)c3cc(-c4ccccn4)n[nH]3)C2)c1 (configuration not stated)	775 s
O=C(Cc1csc(NC(=O)c2ccco2)n1)Nc1ccc2c(c1)OCCO2	670 s
Cc1cc(C)c2c(N3CCOCC3)nc(C(=O)NCc3cc(F)ccc3F)nc2n1	590 s
O=C(CCSc1ccccc1)N1CCN(c2ccc3nnc(-c4ccco4)n3n2)CC1	703 s
Cc1ccc(NC(=O)Nc2ccc3nnc(C)n3c2)cc1F	710 s
COc1ccc2c(c1)C1(CCN(S(=O)(=O)c3cc(OC)ccc3OC)C1)C(=O)N2C (configuration not stated)	879 s
Cc1cc(N(C)C)n2nc(CN(C)Cc3ccccc3)nc2n1	577 s
COCCNC(=O)C1CCN(c2cncnc2N2CCCC2)CC1	580 s
O=C(CCNc1cnc2cnccn12)NCc1ccc2c(c1)OCO2	564 s
Cc1ccccc1NC(=O)CSc1nnc2c3cc(-c4ccc(F)cc4)nn3ccn12	897 s
O=C(CCCn1c(=O)c2cccn2c2ccc(F)cc21)NCCN1CCCCCC1	635 s
CCn1c(=O)sc2cc(S(=O)(=O)N3CCC(C(=O)N4CCN(C)CC4)CC3)ccc21	600 s
O=C(Nc1ccccc1)N1CCC(CCOc2cccnc2)CC1	638 s
COc1ccc2c(c1)C1(CCN(C(=O)C(C)(C)C)C1)C(=O)N2C (configuration not stated)	764 s
CCn1c(N2CCN(C(=O)NCc3ccccc3)CC2)nc2ccccc21	646 s
COc1ccc(CCC(=O)Nc2nc(-c3ccc(F)cc3F)cs2)cc1	1100 s
COc1ccc(S(=O)(=O)N2CCc3nc(-c4ccc(F)cc4)ncc3C2)cc1	1050 s
CCOc1ccc(C(=O)N2CCCC2c2nc(-c3ccc(OC)cc3)no2)cc1 (configuration not stated)	886 s
Cc1ccc(NC(=O)Cn2c(NCCN3CCOCC3)nc3ccccc32)cc1	556 s
CCCc1cc(C2CCCN2C(=O)Nc2cc(C)ccc2OC)no1 (configuration not stated)	1020 s

— the METLIN SMRT retention time set (Domingo-Almenara et al. 2019)
